Test results reported in paper PMC3174198, “Virtual High-Throughput Screening Identifies Mycophenolic Acid as a Novel RNA Capping Inhibitor” (PLoS ONE, 2011).

Tests used:
RNA guanylyltransferase = biological target: T1, RNA guanylyltransferase (Saccharomyces cerevisiae, UniProt Q01159); experiment: Substrate test: capillary electrophoresis of enzyme adduct and TLC of RNA capping products; type: biochemical, S. cerevisiae; conditions: 1 mM MPA
T1 construct: made in house
T1 sequence (Q01159 1-459): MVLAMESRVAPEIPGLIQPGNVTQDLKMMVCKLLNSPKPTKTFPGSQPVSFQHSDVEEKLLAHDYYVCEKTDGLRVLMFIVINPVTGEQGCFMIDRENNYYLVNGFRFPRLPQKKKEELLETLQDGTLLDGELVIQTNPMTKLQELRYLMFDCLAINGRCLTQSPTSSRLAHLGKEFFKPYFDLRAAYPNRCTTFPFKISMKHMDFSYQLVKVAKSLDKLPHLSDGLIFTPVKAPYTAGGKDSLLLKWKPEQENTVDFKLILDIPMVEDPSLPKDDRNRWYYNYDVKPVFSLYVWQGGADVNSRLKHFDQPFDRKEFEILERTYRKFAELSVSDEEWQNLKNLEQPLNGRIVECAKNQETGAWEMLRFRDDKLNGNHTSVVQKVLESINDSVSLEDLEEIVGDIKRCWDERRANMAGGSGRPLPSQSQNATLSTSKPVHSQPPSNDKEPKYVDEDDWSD
Description: In the typical GTase reaction, the nucleophilic attack on the α-phosphate of GTP by the enzyme during the first step of the reaction results in the formation of a covalent intermediate in which GMP is linked via a phosphoamide bond to a lysine residue of the enzyme. […] Although MPA is not a nucleoside analog per se, we were still interested to monitor its ability to potentially be used as a substrate by the enzyme. The appearance of a slower migrating protein species is traditionally observed upon electrophoresis through a polyacrylamide gel when an RNA capping enzyme is incubated with GTP [25]. This slower migrating species corresponds to the enzyme with covalently bound GMP. We therefore incubated the enzyme in the presence of GTP or MPA and the polypeptide was analyzed by capillary electrophoresis. […] Aliquots of the RNA samples were then digested with nuclease P1 and alkaline phosphatase and analyzed by polyethyleneimine-cellulose thin layer chromatography (Fig. 3B).
(A) Capillary electrophoresis analysis of the RNA capping reaction. The GTase reactions were performed in the presence of the purified enzyme (1 µM) and GTP (1 mM) or MPA (1 mM), and the reaction products were analyzed by capillary electrophoresis. […] The reaction products were analyzed by thin layer chromatography on a polyethyleneimine-cellulose plate developed with 0.5 M LiCl and 1 M formic acid. […]

[1] = biological target: T2, RNA guanylyltransferase from vaccinia virus (D1R) (Vaccinia virus, UniProt P04298); experiment: biochemical
T2 construct: made in house

[2] = biological target: T3, GTase of S. cerevisiae (Ceg1 protein) (Saccharomyces cerevisiae, UniProt Q01159); experiment: Second step of GTase reaction: transfer of GMP onto acceptor RNA; type: biochemical; conditions: enzyme pre-incubated with GTP, then acceptor 5'-diphosphate RNA added with MPA
T3 construct: made in house
T3 sequence (Q01159 1-459): T1 sequence (Q01159 1-459)
Method: (§1) Figure 2 Mycophenolic acid inhibits the RNA guanylyltransferase activity. (A) Molecular structure of mycophenolic acid (MPA). (B) Increasing concentrations of MPA inhibit the complete RNA guanylyltransferase reaction. […] The reaction products were analyzed on a denaturing polyacrylamide gel and quantified (right side of the panel). (C) MPA is not a potent inhibitor of the first step of the GTase reaction. […] (D) The second step of the GTase reaction is inhibited by MPA. […] Formation of the radiolabeled capped GpppRNA was monitored following electrophoresis on a denaturant polyacrylamide gel.

[3] = biological target: T4, human RNA guanylyltransferase (HCE) (Homo sapiens, UniProt O60942); experiment: First and second step of the GTase reaction, human enzyme; type: biochemical; conditions: enzyme-GMP formation
T4 construct: made in house

[4] = biological target: T5, Chlorella virus DNA ligase (Paramecium bursaria Chlorella virus 1, UniProt O41026); experiment: Second step of ligation: AMP transfer to 5'-phosphate DNA (1-nt gapped substrate); type: biochemical; conditions: enzyme pre-incubated with ATP; 1-nt gapped DNA substrate
Description: (§2) An autoradiogram of the gel is shown.

[5] = biological target: T6, RNA guanylyltransferase from Chlorella virus (A103R) (Paramecium bursaria Chlorella virus 1, UniProt Q84424); experiment: First and second step of the GTase reaction, Chlorella enzyme; type: biochemical
T6 construct: made in house

[6] = biological target: T5, Chlorella virus DNA ligase; experiment: Ligation assay: strand joining of nicked DNA duplex (complete reaction)
[7] = biological target: T3, GTase of S. cerevisiae (Ceg1 protein); experiment: Complete RNA guanylyltransferase reaction (both steps), standard GTase assay; type: biochemical
[8] = biological target: T5, Chlorella virus DNA ligase; experiment: First step of ligation: enzyme-AMP covalent complex formation; type: biochemical
Description: as §2

[9] = biological target: T7, yeast GTase enzyme-GMP complex (Saccharomyces cerevisiae, UniProt Q01159); experiment: UV-crosslinking of radiolabelled RNA to the enzyme-GMP complex; parameters: species or system S. cerevisiae; conditions: 81 nt 5'-triphosphate radiolabelled RNA (3 µM), read-out: IC50 for inhibition of RNA binding to the enzyme-GMP complex
T7 construct: made in house
Method: UV-crosslinking between the internally ^32P-labeled RNA of 81 nt and the yeast GTase was performed in a crosslink buffer (50 mM Tris pH 7.5, 5 mM DTT, 5 mM MgCl2). The protein (12 µM) was incubated with GTP (1 mM) and different concentrations of MPA for 10 minutes at 30°C. The radiolabeled RNA (3 µM) was added to the reaction mixture and incubated for 5 minutes at 30°C. The reaction mixture was exposed to UV light (254 nm, 20 Joules/cm^2) for 5 min at 30°C using a Stratalinker 2400 UV Crosslinker (Stratagene). The crosslink mixture was denatured (50 mM Tris-HCl, pH 7.0, 5% sucrose, 5% b-mercaptoethanol, 2% SDS) and separated by electrophoresis on a 12% SDS-PAGE. The gel was analyzed by phosphorimaging.
It is tempting to speculate that the opening of the active site of the enzyme that is normally observed following the hydrolysis of GTP to produce the enzyme-GMP covalent intermediate is inhibited by MPA. Following the formation of the GMP adduct, the enzyme must open up to provide access for the incoming mRNA substrate, since this site is blocked off in the closed form of the enzyme. […] In order to validate this hypothesis, cross-linking assays were used to monitor the binding of radiolabelled RNA to the enzyme-GMP complex with or without MPA. […]
Figure 5 Binding of MPA to the enzyme-GMP complex inhibits the interaction with RNA. […] (B) The reaction products were quantified by phosphorimaging.

S. cerevisiae cells = experiment: Primer extension analysis of SSA1 mRNA 5' ends (RNA cap formation in cells); type: cell-based; conditions: 500 µg/ml MPA for 3 h
[10] = biological target: T3, GTase of S. cerevisiae (Ceg1 protein); experiment: First step of GTase reaction: enzyme-GMP covalent complex formation; type: biochemical
Method: The assay was performed by incubating the enzyme (0.1 µM) with 10 µM [α-^32P]GTP in a buffer containing 50 mM Tris-HCl, pH 8, 5 mM DTT, and 5 mM MgCl2 for 5 min at 30°C. […] The reactions were analyzed by electrophoresis through a 12.5% polyacrylamide gel containing 0.1% SDS. The radiolabeled proteins were visualized by autoradiography of the gel.
as §1

T5 sequence (O41026 entry or part of it): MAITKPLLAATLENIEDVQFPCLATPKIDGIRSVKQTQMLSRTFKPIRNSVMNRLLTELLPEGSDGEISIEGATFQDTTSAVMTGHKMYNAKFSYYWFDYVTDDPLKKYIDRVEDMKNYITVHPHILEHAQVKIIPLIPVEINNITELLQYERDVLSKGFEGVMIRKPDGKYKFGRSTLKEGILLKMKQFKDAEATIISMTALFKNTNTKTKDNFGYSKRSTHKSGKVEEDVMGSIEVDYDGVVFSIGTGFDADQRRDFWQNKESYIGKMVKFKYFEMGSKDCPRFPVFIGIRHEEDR
T6 sequence (Q84424 whole entry, stated change not applied): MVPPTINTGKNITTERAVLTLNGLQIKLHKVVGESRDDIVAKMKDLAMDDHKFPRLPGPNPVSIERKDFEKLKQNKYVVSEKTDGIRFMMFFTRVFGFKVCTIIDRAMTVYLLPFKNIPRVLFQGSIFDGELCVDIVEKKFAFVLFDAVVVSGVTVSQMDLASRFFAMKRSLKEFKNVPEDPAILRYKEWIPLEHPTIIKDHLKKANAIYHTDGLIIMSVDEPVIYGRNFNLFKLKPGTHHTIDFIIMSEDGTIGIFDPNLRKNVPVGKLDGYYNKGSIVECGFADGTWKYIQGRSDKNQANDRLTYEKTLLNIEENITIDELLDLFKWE
T4 sequence (O60942 whole entry): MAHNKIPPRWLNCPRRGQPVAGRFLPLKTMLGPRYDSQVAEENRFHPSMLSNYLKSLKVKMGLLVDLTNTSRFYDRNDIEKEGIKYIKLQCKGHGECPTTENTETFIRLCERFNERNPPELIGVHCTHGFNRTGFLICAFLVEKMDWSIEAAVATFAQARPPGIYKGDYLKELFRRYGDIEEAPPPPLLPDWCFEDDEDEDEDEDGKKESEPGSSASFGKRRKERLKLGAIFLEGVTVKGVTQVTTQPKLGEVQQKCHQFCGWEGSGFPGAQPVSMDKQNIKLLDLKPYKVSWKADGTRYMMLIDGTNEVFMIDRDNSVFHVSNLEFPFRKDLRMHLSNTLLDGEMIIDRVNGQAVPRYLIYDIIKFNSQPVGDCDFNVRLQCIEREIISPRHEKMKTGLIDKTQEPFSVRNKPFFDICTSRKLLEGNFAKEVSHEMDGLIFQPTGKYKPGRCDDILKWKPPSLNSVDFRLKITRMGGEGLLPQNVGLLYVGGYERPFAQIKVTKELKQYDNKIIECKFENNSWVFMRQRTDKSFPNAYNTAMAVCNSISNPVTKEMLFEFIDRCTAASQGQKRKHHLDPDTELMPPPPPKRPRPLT

In the case of `COc1c(C)c2c(c(O)c1C/C=C(\C)CCC(=O)O)C(=O)OC2` [MPA, mycophenolic acid], the “use as substrate by the GTase (slower migrating covalent enzyme species)” value (RNA guanylyltransferase; capillary electrophoresis) is reported as “not a substrate”, the “transfer to an acceptor RNA” value (RNA guanylyltransferase; nuclease P1 + alkaline phosphatase digestion, TLC) is reported as “could not be detected” and the IC50 [1] is reported as about 3 mM. For the same compound, the IC50 [2] was 640 µM, the IC50 [3] was about 3 mM and the IC50 [4] was 600 µM. The IC50 [5] was about 3 mM, the IC50 [6] was 700 µM and the IC50 [7] was 360 µM. The inhibition at 900 µM ([7]; at 900 µM MPA, both steps, read-out: inhibition of the overall GTase activity) was 80%, the IC50 ([8]; enzyme-AMP covalent complex formation) was about 3 mM and the “concentration for first step relative to amount required to inhibit the overall reaction” value ([8]; first step IC50 / overall ligation IC50) was 4 times. For the same compound, the IC50 [9] was 410 µM, the “reduction of cap formation” value (S. cerevisiae cells) was 50% and the IC50 [10] was 3 mM. The “concentration for first step relative to amount required to inhibit the overall GTase reaction” value ([10]; first step IC50 / overall (both steps) IC50) was 8 times.
